The experiment deals with Clone20 osteoblast Shn3 3'UTR firefly luciferase, 24 h. In words: Shn3 3'UTR reporter inhibitors, dose response, cell-based, Clone20 osteoblasts, luminescence, dry powder, set 2 (AID 743417).

Records with an inconclusive call do not appear.

On to `O=c1c2ccccc2nc2n1C(CSCc1ccc(Cl)cc1Cl)CS2` (configuration not stated), for which the concentration at half-maximal activity (AC50) (commonly the concentration at which the activity in the assay is half-maximal) was 1.45 µM.
The value for `CS(=O)(=O)c1ccc(C(=O)OCC(=O)NCc2cccs2)cc1[N+](=O)[O-]` was 2.07 µM.
For `Cc1ccc2c(c1)c(C1=c3ccccc3=NC1=O)c(O)n2C` the value was 8.85 µM; for `O=C(CN(C(=O)c1ccc(Cl)cc1)C1CCCCC1)Nc1ccc(Cl)c([N+](=O)[O-])c1`, 8.11 µM; for `COc1ccc(NS(=O)(=O)c2ccc(N3CCCCC3)c(N)c2)cc1`, 0.824 µM.
`NC(=O)c1ccc(N2CCN(S(=O)(=O)c3cccs3)CC2)c([N+](=O)[O-])c1`: the AC50 was 0.305 µM.
As for `Cc1nc2c(OCc3ccc(Cl)cc3Cl)cccn2c1N(C)CC1CC1`, the AC50 was 10 µM.
In the case of `N#Cc1cc(-c2ccccc2)[nH]c1-c1nccc2ccccc12`, the AC50 was 3.42 µM.
For `O=C(Nc1ccncc1)c1ccc(Cl)c(S(=O)(=O)N2CCc3ccccc32)c1` the value was 3.19 µM; for `N#CC(c1cccc(Cl)c1)c1ccc2c(C(F)(F)F)cc(C(F)(F)F)nc2n1` (configuration not stated), 0.689 µM; for `COc1ccc(C(=O)C(C)OC(=O)c2cccc(S(=O)(=O)Nc3cc(Cl)c(OC)cc3OC)c2)cc1` (configuration not stated), 5.54 µM.
On to `CC(C)=CCC/C(C)=C/CNC(=O)C[C@H]1C[C@H](C(=O)N2CCOCC2)[C@@]2(C)c3[nH]c4cc(CCC(=O)N(C)C)ccc4c3CCN2C1=O`, for which the AC50 was 1.11 µM.
For `COc1cccc(C(c2nnnn2-c2ccc3c(c2)OCCO3)N2CCC(n3c(=O)[nH]c4ccccc43)CC2)c1OC` (configuration not stated) the value was 3.74 µM.
For `CS(=O)(=O)c1ccc(C(=O)OCC(=O)N2CCOCC2)cc1[N+](=O)[O-]` the value was 17.5 µM; for `COCC1CCCCN1C(=O)c1cc(COc2ccc3ncccc3c2)on1` (configuration not stated), 0.33 µM; for `COc1cccc(CNCCc2c[nH]c3ccccc23)c1OCc1ccccc1`, 4.09 µM.
For `CC(=O)c1ccc(N2CCN(c3ccc(S(=O)(=O)NCCCN(C)C)cc3[N+](=O)[O-])CC2)cc1`, the half-maximal activity concentration (AC50) is 3.78 µM.
For `C=C1CC(COc2cc(=O)oc3ccccc23)(c2ccccc2)OC1=O` (configuration not stated) the value was 3.93 µM; for `COc1ccc(CN(C)c2ccc(S(=O)(=O)N3CCN(C)CC3)cc2[N+](=O)[O-])cc1OC`, 0.691 µM; for `CC(=O)OCCCNc1cc(Sc2ccc(Cl)cc2)c2nonc2c1[N+](=O)[O-]`, 1.14 µM.
On to `C#CC(=O)N(c1ccc(OC)cc1OC)C(C(=O)NC1CCCC1)c1cccs1` (configuration not stated), for which the AC50 is 7.12 µM.
For `COc1ccc(CCNc2c(C)c(C)nc3ncnn23)cc1` the value was 0.565 µM.
For `COc1ccc(C(=O)Cn2c(C(=O)/C=C/c3ccccc3)nc3ccccc32)cc1` the value was 4.47 µM.
Consider `CCCCNc1nc2c(c(=O)n(C)c(=O)n2C)n1Cc1cccc(OC)c1`, for which the AC50 is 0.284 µM.
Take `CC(C)(C)C(=O)/C(=C/c1ccc(Cl)cc1)n1cncn1`: the AC50 was 3.75 µM.
The value for `C#CC(=O)N(c1ccc(OC)c(OC)c1)C(C(=O)NC1CCCC1)c1cccs1` (configuration not stated) was 3.32 µM; that for `C[C@H]1CCC/C=C/[C@@H]2C[C@H](O)C[C@H]2[C@@H](O)/C=C/C(=O)O1` was 2.17 µM; that for `CC1CC(C)(O)CC(C(O)CC2CC(=O)NC(=O)C2)C1=O` (configuration not stated) was 0.339 µM.
Take `Nc1cc(Cl)c2nonc2c1[N+](=O)[O-]`: the AC50 is 5.37 µM.
With `C[C@H]1COC(=O)[C@H](NC(=O)OCC2c3ccccc3-c3ccccc32)C/C=C\C[C@H](CC(=O)N(CCO)Cc2ccccc2)C(=O)N1`, the half-maximal activity concentration (AC50) is 6.08 µM.
On to `COc1ccc(C(CCNCc2ccc(OC(C)C)cc2)c2ccccc2OC)cc1` (configuration not stated), for which the concentration at half-maximal activity (AC50) is 6.44 µM.
On to `COc1ccc(-c2cc(N)n(S(=O)(=O)c3c(F)c(F)c(F)c(F)c3F)n2)cc1OC`, for which the AC50 is 0.896 µM.
Turning to `COc1ccccc1OCC(=O)c1[nH]c(C)c(C(C)=O)c1C`, the AC50 was 3.35 µM.
For `COC(=O)C1=C(c2ccc(-c3ccccc3)c(F)c2)C[C@@H]2CC[C@H]1N2C(=O)N1CCCC1` the value was 6.06 µM.
The value for `Cc1ccc(CNC(=O)CSc2c3c(nc4ccc(Cl)cc24)CCCC3)o1` was 5.98 µM.
The value for `CCOc1cc(N2CCOCC2)c(OCC)cc1NC(=O)c1cc(-c2ccco2)nc2ccccc12` was 8.94 µM; that for `CS(=O)(=O)c1ccc(Sc2nc3ccccc3s2)c([N+](=O)[O-])c1` was 9.73 µM; that for `Cc1cc(Br)c2c(c1)/C(=C/C(=O)c1cccs1)C(=O)N2` was 19.9 µM.
On to `CC(C)c1nnc(NC(=O)c2nc(S(=O)(=O)Cc3ccccc3)ncc2Cl)s1`, for which the AC50 is 0.876 µM.
For `COc1ccc(-c2noc(CCC(=O)NCCCN3CCC(Cc4ccccc4)CC3)n2)cc1` the value was 4.03 µM.
The value for `O=C(CC(O)(C(F)(F)F)C(F)(F)F)Nc1ccc(Cl)c(Cl)c1` was 4.97 µM.
The value for `Nc1nonc1C(=O)NCCNCc1cc(Br)ccc1OCc1ccc(F)cc1` was 3.74 µM.
As for `Cc1ccc(NC(=O)c2ccc(Cl)c(N3C(=O)C=CC3=O)c2)cc1`, the concentration at half-maximal activity (AC50) is 1.6 µM.
For `CCOC(=O)c1sc(NC(=O)CCCn2nc([N+](=O)[O-])c(Cl)c2C)c(C(=O)OCC)c1C` the value was 6.34 µM; for `CCOC(=O)CS(=O)(=O)c1nc(-c2ccc(F)cc2)cc(C(F)(F)F)n1`, 1.78 µM; for `CN(C)S(=O)(=O)c1cccc(NC(=O)c2cccc(S(=O)(=O)N3CCc4ccccc43)c2)c1`, 3.92 µM.
The value for `COc1cc(/C=C/C(=O)c2ccc3c(c2)OCCO3)cc(Br)c1OCC(=O)N(C)C` was 2.63 µM; that for `CCCC(=O)NC(c1cccc([N+](=O)[O-])c1)c1ccc2cccnc2c1O` (configuration not stated) was 1.75 µM.
For `Cc1ccc(CS(=O)(=O)c2ncc(Cl)c(C(=O)Nc3ccc(OC(F)F)cc3)n2)cc1` the value was 2.34 µM; for `Cc1nc(SCC(=O)Nc2nc3ccccc3s2)c(C#N)c(C)c1C`, less than 0.26 µM.
For the compound `CCN(CC)S(=O)(=O)c1ccc(NC(=O)Nc2cccc(C(F)(F)F)c2)cc1`, the AC50 is 5.6 µM.
The value for `CC(C)NCC(O)COc1cccc2ccccc12` (configuration not stated) was 23.6 µM.
Turning to `CC(C)C[C@H]1CN=C(N(C)C)N1CC1CCCCCC1`, the half-maximal activity concentration (AC50) was 5.03 µM.
Take `CN(c1ccccc1)S(=O)(=O)c1cccc(NC(=O)CSc2nncs2)c1`: the half-maximal activity concentration (AC50) is 1.44 µM.
For `Cc1cccc(CS(=O)(=O)c2ncc(Cl)c(C(=O)Nc3ccc(F)cc3)n2)c1` the value was 0.55 µM; for `COCCOc1nc2c(c(=O)n(C)c(=O)n2C)n1Cc1cccc(OC)c1`, 2.23 µM.
On to `Cc1cc(C)c(C)c(S(=O)(=O)N2CCN(c3ncnc4ccccc34)CC2)c1C`, for which the half-maximal activity concentration (AC50) was 1.46 µM.
Regarding `c1ccc(-c2cc(CSc3nc4ccccc4[nH]3)on2)cc1`, the concentration at half-maximal activity (AC50) was 3.76 µM.
The value for `Clc1ccc(-c2cc(-c3nnc4n3CCCCC4)c3ccccc3n2)cc1` was 5.59 µM; that for `O=C(Nc1nc(-c2ccccn2)cs1)c1ccc(Br)s1` was 1 µM; that for `C=CCNc1nc(N2CCCCC2)c(C#N)c2c1CN(Cc1ccccc1)CC2` was 16.8 µM.
In the case of `O=C(NCc1cccnc1)/C(=C\c1ccc(-c2ccc(Br)cc2)o1)S(=O)(=O)c1ccccc1`, the AC50 is 6.33 µM.
`CC(=O)c1cccc(NS(=O)(=O)c2ccc(N/C=C\C(=O)c3ccc(C)cc3)cc2)c1`: the concentration at half-maximal activity (AC50) was 1.51 µM.
The value for `CC(C)(C)C(=O)Nc1cc2nn(-c3ccccc3)nc2cc1Cl` was 5.16 µM; that for `CC(C)(C)C(=O)Cn1ncc(Br)c(Br)c1=O` was 9.51 µM.
As for `CC1(C)CC2CC(C)(CN2c2ncnc3ccc(Br)cc23)C1` (configuration not stated), the half-maximal activity concentration (AC50) is 2.11 µM.
As to `C=CCn1c(SCC(=O)c2[nH]c(C)c(C(=O)OC)c2C)nc2scc(-c3ccc(OC)c(OC)c3)c2c1=O`, the AC50 is 2.01 µM.
As to `CC(C)(C)c1ccc(C(=O)NCCCN2CCN(CCCNC(=O)c3ccc(C(C)(C)C)cc3)CC2)cc1`, the AC50 was 4.84 µM.
The value for `COC(=O)C1=C(c2ccc(OCc3ccccc3)cc2)C[C@@H]2CC[C@H]1N2C(=O)NCc1ccc(OC)c(OC)c1` was 19.7 µM; that for `CCc1ccc(Nc2n[n+](-c3ccccc3)c(-c3c(Cl)cccc3Cl)s2)cc1` was 5.4 µM; that for `Cc1ccc(C(=O)NC2CCCc3c2cnn3-c2ccc(F)cc2F)cn1` (configuration not stated) was 0.921 µM.
For `Cc1sc2ncnc(NCC(C)(C)N3CCOCC3)c2c1C` the value was 1.36 µM; for `CC1=NOC(=O)/C1=C\c1ccc(-c2ccccc2Br)o1`, 6.48 µM.
The value for `CC/C(=C/c1ccccc1)c1cccc2[nH]c3c(OC)cccc3c12` was 32.8 µM; that for `CCc1ccc(OCC(=O)NC(NC(=S)Nc2ccc(Cl)cc2)C(Cl)(Cl)Cl)cc1` (configuration not stated) was 4.96 µM; that for `CCN(CC)c1ccc(/C=C2/SC(=O)N(C(C)C)C2=O)o1` was 3.46 µM.
As to `CCOC(=O)c1c2c(n(C)c1C)C(=O)C(=O)c1ccc(Br)cc1-2`, the concentration at half-maximal activity (AC50) is 1.01 µM.
With `Cc1ccc(NC(=O)c2cc(S(=O)(=O)NCCC3=CCCCC3)ccc2F)cc1F`, the half-maximal activity concentration (AC50) is 4.13 µM.
For `COc1ccc(CCNc2ncnc3sc(C)cc23)cc1OC` the value was less than 0.26 µM.
For `N#Cc1ccc(NC(=O)Nc2ccc(Oc3ccc(NC(=O)Nc4ccc(C#N)cc4)cc3)cc2)cc1` the value was 2.68 µM.
For `CCN(CC)c1ccc2c(c1)oc(=O)c1c(Cl)cc(=O)oc12` the value was 2.22 µM; for `CCCC(=O)NC(c1ccccc1Cl)c1ccc2cccnc2c1O` (configuration not stated), 1.21 µM; for `CC(C)c1ccc(NC(=O)Nc2nc(C(N)c3ccccc3)cs2)cc1` (configuration not stated), 2.48 µM.
As to `C=C1C(=O)OC2C=C(CO)C3OC3C3OC3(C)CC(OC(=O)/C(=C/C)COC(C)=O)C12` (configuration not stated), the AC50 is 5.89 µM.
Regarding `O=C(c1ccc(S(=O)(=O)c2ccc(F)cc2)c([N+](=O)[O-])c1)N1CCCCCC1`, the AC50 was 2.38 µM.
For the compound `O=C(c1cc(COc2ccc3ncccc3c2)on1)N1CCCCCC1`, the AC50 is 0.703 µM.
Turning to `CCOC(=O)c1ccc(NC(=O)c2nc(S(=O)(=O)Cc3ccccc3)ncc2Cl)cc1`, the half-maximal activity concentration (AC50) was 0.572 µM.
The value for `NC(c1csc(NC(=O)Nc2cccc(C(F)(F)F)c2)n1)C1CCCCC1` (configuration not stated) was 4.81 µM; that for `O=C(Nc1ccccc1)Nc1cc(OCC(F)(F)F)cc(OCC(F)(F)F)c1` was 6.4 µM.
In the case of `Cc1cccc(NC(=O)/C=C/c2ccc([N+](=O)[O-])s2)c1`, the concentration at half-maximal activity (AC50) is 3.29 µM.
The value for `Cc1cccc(NC(=O)Cn2cc(C(=O)C3CC3)c3ccccc32)c1C` was 2.39 µM; that for `Cc1cc2sc3ccc(C#CC4(O)CCCCC4)cc3c(=O)c2cc1C` was less than 0.26 µM.

For the origin of these results see PubChem BioAssay AID743417 (Broad Institute, 2014).
